Source: DBAASP
In brackets after ≈: the same amount, converted by molar mass.

Tests used:
Experiment in all cases: ≥ marks a high value that may be exact or a test limit, other limits are often not marked, values filed in µg/mL are converted to µM
[1] = system: Streptococcus mutans UA159
[2] = system: Streptococcus sanguinis ATCC 10556
[3] = system: Streptococcus sobrinus ATCC 6715
[4] = system: Cronobacter muytjensii ATCC 51329
[5] = system: Cronobacter sakazakii ATCC BAA-894
[6] = system: Cronobacter sakazakii DPC 6440
[7] = system: Cronobacter sakazakii DSM 4485
[8] = system: Escherichia coli NCIMB 11843
[9] = system: Klebsiella pneumoniae NCIMB 13218
[10] = system: Pseudomonas aeruginosa ATCC 27853
[11] = system: Pseudomonas fluorescens NCIMB 9046
[12] = system: Salmonella enterica subsp. enterica serovar Typhimurium LT2
[13] = system: Staphylococcus aureus NCTC 8325-4
[14] = system: Staphylococcus aureus Newman
[15] = system: Staphylococcus aureus RF122
[16] = system: Staphylococcus aureus RN4220
[17] = system: Staphylococcus aureus SA113
[18] = system: Pseudomonas aeruginosa 0108
[19] = system: Pseudomonas aeruginosa CGMCC 1.860
[20] = system: Staphylococcus epidermidis CICC 23664
[21] = system: Staphylococcus epidermidis
Bacillus subtilis DELTA = system: Bacillus subtilis DELTA
Candida parapsilosis = system: Candida parapsilosis
[22] = system: Escherichia coli DH5alpha
[23] = system: Pseudomonas aeruginosa PAO1
[24] = system: Zymomonas mobilis ATCC 10988
[25] = system: Erwinia amylovora PMV 6076
[26] = system: Pseudomonas syringae pv. syringae EPS 94
[27] = system: Xanthomonas campestris pv. Vesicatoria 2133-2
[28] = system: Bacillus cereus ATCC 11778
[29] = system: Escherichia coli ATCC 25922
[30] = system: Klebsiella aerogenes ATCC 13048
[31] = system: Salmonella enterica subsp. enterica serovar Typhimurium ATCC 14028
[32] = system: Staphylococcus aureus ATCC 29213
Escherichia coli C600 = system: Escherichia coli C600
[33] = system: Staphylococcus aureus 209P

An MIC [1] of no less than 279 µM, an MIC [2] of no less than 279 µM and an MIC [3] of no less than 279 µM were found for `CC(C)[C@H](NC(=O)[C@H](CCCCN)NC(=O)[C@H](C)NC(=O)[C@H](C)NC(=O)[C@H](CCCCN)NC(=O)[C@H](CCCCN)NC(=O)[C@H](Cc1ccccc1)NC(=O)[C@H](Cc1ccccc1)NC(=O)[C@H](CCCCN)NC(=O)CNC(=O)[C@H](Cc1c[nH]c2ccccc12)NC(=O)CN)C(=O)NCC(=O)N[C@@H](CCCCN)C(=O)N[C@@H](CCCCN)C(=O)N[C@H](C(=O)NCC(=O)O)C(C)C` [GWGKFFKKAAKVGKKVG] in this work.

An MIC [4] of no less than 2500 µM, an MIC [5] of no less than 2500 µM and an MIC [6] of no less than 2500 µM were found for `CC(C)C[C@H](NC(=O)[C@H](CC(C)C)NC(=O)[C@H](CC(N)=O)NC(=O)[C@H](CCC(=O)O)NC(=O)[C@H](CC(N)=O)NC(=O)[C@H](CC(C)C)NC(=O)[C@@H](N)C(C)C)C(=O)N[C@@H](C)C(=O)O` [VLNENLLA] in this work. For the same molecule, the MIC [7] was no less than 2500 µM, the MIC [8] was no less than 2500 µM and the MIC [9] was no less than 2500 µM. It also gave an MIC [10] of 32 µM (≈ 28.3 µg/mL), an MIC [11] of no less than 2500 µM and an MIC [12] of no less than 1250 µM. For the same molecule, the MIC [13] was no less than 1250 µM, the MIC [14] was no less than 1250 µM and the MIC [15] was no less than 1250 µM. It also gave an MIC [16] of no less than 1250 µM and an MIC [17] of no less than 1250 µM.

An MIC [1] of 9.13 µM (≈ 16 µg/mL), an MIC [2] of 9.13 µM (≈ 16 µg/mL) and an MIC [3] of 9.13 µM (≈ 16 µg/mL) were found for `NCCCC[C@H](NC(=O)CNC(=O)[C@H](Cc1ccccc1)NC(=O)[C@H](CCCCN)NC(=O)[C@H](Cc1ccccc1)NC(=O)[C@H](Cc1ccccc1)NC(=O)[C@H](CCCCN)NC(=O)[C@H](CCCCN)NC(=O)[C@H](Cc1ccccc1)NC(=O)[C@H](Cc1ccccc1)NC(=O)[C@H](CCCCN)NC(=O)CNC(=O)[C@H](Cc1c[nH]c2ccccc12)NC(=O)CN)C(=O)O` [GWGKFFKKFFKFGK] in this work.

An MIC [18] of 25 µM (≈ 40.6 µg/mL), an MIC [19] of 25 µM (≈ 40.6 µg/mL) and an MIC [20] of 12.5 µM (≈ 20.3 µg/mL) were found for `CC[C@H](C)[C@H](N)C(=O)N[C@@H](CCCCN)C(=O)N[C@@H](CCCCN)C(=O)N[C@H](C(=O)N[C@@H](CC(C)C)C(=O)N[C@@H](CO)C(=O)N[C@@H](CCCCN)C(=O)N[C@H](C(=O)N[C@@H](CCCCN)C(=O)N[C@@H](CCCCN)C(=O)N[C@@H](CC(C)C)C(=O)N[C@@H](Cc1c[nH]c2ccccc12)C(=O)N[C@@H](CCCCN)C(N)=O)[C@@H](C)CC)[C@@H](C)CC` [IKKILSKIKKLWK] in this work. For the same molecule, the MIC [21] was 12.5 µM (≈ 20.3 µg/mL).

An MIC [18] of 25 µM (≈ 40.6 µg/mL), an MIC [19] of 12.5 µM (≈ 20.3 µg/mL) and an MIC [20] of 3.12 µM (≈ 5.07 µg/mL) were found for `CC[C@H](C)[C@H](N)C(=O)N[C@@H](CCCCN)C(=O)N[C@@H](CCCCN)C(=O)N[C@H](C(=O)N[C@@H](CC(C)C)C(=O)N[C@@H](CO)C(=O)N[C@@H](CCCCN)C(=O)N[C@H](C(=O)N[C@@H](CCCCN)C(=O)N[C@@H](CCCCN)C(=O)N[C@@H](Cc1c[nH]c2ccccc12)C(=O)N[C@@H](CC(C)C)C(=O)N[C@@H](CCCCN)C(N)=O)[C@@H](C)CC)[C@@H](C)CC` [IKKILSKIKKWLK] in this work. For the same molecule, the MIC [21] was 12.5 µM (≈ 20.3 µg/mL).

An MIC [4] of no less than 625 µM, an MIC [5] of no less than 1250 µM and an MIC [6] of no less than 625 µM were found for `CC(C)C[C@H](NC(=O)[C@H](C)NC(=O)[C@H](CCC(=O)O)NC(=O)[C@H](CC(N)=O)NC(=O)[C@H](CC(C)C)NC(=O)[C@@H](N)C(C)C)C(=O)N[C@@H](CC(C)C)C(=O)N[C@@H](CCCN=C(N)N)C(=O)O` [VLNEALLR] in this work. It also gave an MIC [7] of no less than 1250 µM, an MIC [8] of no less than 2500 µM and an MIC [9] of no less than 2500 µM. It also gave an MIC [10] of 32 µM (≈ 29.7 µg/mL), an MIC [11] of no less than 2500 µM and an MIC [12] of no less than 1250 µM. The MIC [13] was no less than 1250 µM, the MIC [14] was no less than 1250 µM and the MIC [15] was no less than 1250 µM. For the same molecule, the MIC [16] was no less than 1250 µM and the MIC [17] was no less than 1250 µM.

An MIC (Bacillus subtilis DELTA) of 6.04 µM (≈ 10.2 µg/mL), an MIC (Candida parapsilosis) of 24.2 µM (≈ 41 µg/mL) and an MIC [22] of no less than 60.4 µM were found for `CC[C@H](C)[C@H](NC(=O)[C@H](CCCN=C(N)N)NC(=O)[C@H](CCCCN)NC(=O)[C@H](Cc1ccccc1)NC(C)=O)C(=O)N[C@H](C(=O)N[C@@H](CCC(N)=O)C(=O)N[C@@H](CC(C)C)C(=O)N[C@@H](CC(C)C)C(=O)N[C@@H](CCCCN)C(=O)N[C@@H](CCCCN)C(=O)N[C@@H](CC(C)C)C(=O)N[C@@H](CC(C)C)C(=O)N[C@@H](CCCN=C(N)N)C(N)=O)C(C)C` [FKRIVQLLKKLLR] in this work. The MIC [23] was 1.81 µM (≈ 3.07 µg/mL) and the MIC [24] was 3.02 µM (≈ 5.12 µg/mL).

An MIC (Bacillus subtilis DELTA) of no less than 32.2 µM, an MIC (Candida parapsilosis) of 24.1 µM (≈ 30 µg/mL) and an MIC [22] of no less than 322 µM were found for `CC[C@H](C)[C@H](NC(=O)[C@H](Cc1ccccc1)NC(=O)[C@H](CCCCN)NC(=O)[C@H](CC(C)C)NC(=O)[C@H](CC(C)C)NC(=O)[C@@H](N)CCCCN)C(=O)N[C@@H](CCCCN)C(=O)N[C@@H](CCCCN)C(=O)N[C@@H](CC(C)C)C(=O)N[C@@H](CC(C)C)C(N)=O` [KLLKFIKKLL] in this work. The MIC [24] was 8.04 µM (≈ 9.99 µg/mL).

An MIC [25] of 3.54 µM (≈ 10.7 µg/mL), an MIC [26] of 8.66 µM (≈ 26.1 µg/mL) and an MIC [27] of 6.12 µM (≈ 18.5 µg/mL) were found for `CC[C@H](C)[C@H](NC(=O)[C@H](CCCCN)NC(=O)[C@H](CCCCN)NC(=O)[C@H](Cc1ccccc1)NC(=O)[C@H](CC(C)C)NC(=O)[C@H](CCCCN)NC(=O)[C@@H](N)CCCCN)C(=O)N[C@@H](CC(C)C)C(=O)N[C@@H](CCCCN)C(=O)N[C@@H](Cc1ccc(O)cc1)C(=O)N[C@@H](CC(C)C)C(=O)N[C@@H](C)C(=O)NCC(=O)N1CCC[C@H]1C(=O)N[C@@H](C)C(=O)N[C@@H](CCCCN)C(=O)N[C@@H](Cc1ccccc1)C(=O)N[C@@H](CC(C)C)C(=O)N[C@@H](Cc1cnc[nH]1)C(=O)N[C@@H](CO)C(=O)N[C@@H](C)C(=O)N[C@@H](CCCCN)C(=O)N[C@@H](CCCCN)C(=O)N[C@@H](CC(=O)O)C(=O)N[C@@H](CCC(=O)O)C(=O)N[C@@H](CC(C)C)C(=O)O` [KKLFKKILKYLAGPAKFLHSAKKDEL] in this work.

An MIC [28] of no less than 67.8 µM, an MIC [29] greater than 67.8 µM and an MIC [30] of no less than 67.8 µM were found for `CC[C@H](C)[C@H](N)C(=O)N[C@@H](CC(C)C)C(=O)NCC(=O)N[C@@H](CCCCN)C(=O)N[C@H](C(=O)N[C@@H](Cc1c[nH]c2ccccc12)C(=O)N[C@@H](CCC(=O)O)C(=O)NCC(=O)N[C@H](C(=O)N[C@@H](CCCCN)C(=O)N[C@@H](CO)C(=O)N[C@@H](CC(C)C)C(=O)N[C@@H](Cc1ccccc1)C(N)=O)C(C)C)C(C)C` [ILGKVWEGVKSLF] in this work. It also gave an MIC [31] greater than 67.8 µM and an MIC [32] greater than 67.8 µM.

An MIC (Escherichia coli C600) of 3.13 µM (≈ 7.33 µg/mL), an MIC [23] of 50 µM (≈ 117 µg/mL) and an MIC [33] of 3.13 µM (≈ 7.33 µg/mL) were found for `CC(C)[C@@H]1NC(=O)CNC(=O)[C@H](CCCN=C(N)N)NC(=O)[C@H](CCCN=C(N)N)NC(=O)[C@H](CCCN=C(N)N)NC(=O)[C@H](C)NC(=O)[C@H](Cc2ccc(O)cc2)NC(=O)[C@H](C(C)C)NC(=O)[C@@H](NC(=O)[C@H](Cc2c[nH]c3ccccc23)NC(=O)[C@@H](N)CCCN=C(N)N)CSSC[C@@H](C(=O)N[C@@H](Cc2c[nH]c3ccccc23)C(=O)O)NC(=O)[C@H](CCCN=C(N)N)NC(=O)[C@H](CCCN=C(N)N)NC(=O)[C@H](Cc2ccc(O)cc2)NC(=O)[C@H](CCCN=C(N)N)NC1=O` [RWCVYARRRGVRYRRCW] in this work.
